Test results reported in patent US20240174603A1 (Rappta Therapeutics Oy, priority 2021, published 2024).

Test system: LNCaP cells
Assay: LNCaP cell viability assay (MTS)
Format: cell-based
Conditions: Homo sapiens, LNCaP cell line, 48 hours
Experimental: LNCaP cell line was used for the cell viability assay. LNCaP cells were plated in 96-well plates at a density of 5000 cells per well. After 24 hours of plating, the cells were treated with increasing doses of compound (e.g., compounds 1-269) ranging from 1 μM to 80 μM. Relative cell numbers were analyzed after 48 hours using 3-(4,5-dimethylthiazol-2-yl)-5-(3-carboxymethoxyphenyl)-2-(4-sulfophenyl)-2H-tetrazolium (MTS) assay (Promega) according to the manufacturer's instructions.
The cell viability data was analyzed with GraphPad Prism software. The values were log transformed and analyzed with non-linear regression (curve-fit) using log(inhibitor) vs. response-variable slope (four parameters) and constraining the bottom to equal zero. Unless otherwise indicated, the GI50 values provided in Table 113 correspond to the LNCaP cell viability assays.

Row | SMILES | GI50 [µM]
1 | O=S(=O)(NC(CN1CCCCC1)c1ccc(Cl)cc1)c1ccc(OC(F)(F)F)cc1 (centres unmarked) [Compound 183, N-(1-(4-chlorophenyl)-2-(piperidin-1-yl)ethyl)-4-(trifluoromethoxy)benzenesulfonamide] | 33.8

Same assay, conditions: Homo sapiens, LNCaP, 48 h, LNCaP cell line

Row | SMILES | GI50 [µM]
2 | CCC(C#N)Oc1cccc(CNS(=O)(=O)c2ccc(OC(F)(F)F)cc2)c1 (centres unmarked) [Compound 52, N-(3-(1-cyanopropoxy)benzyl)-4-(trifluoromethoxy)benzenesulfonamide] | 72
3 | CN(C)CC(NS(=O)(=O)c1ccc(OC2CCC2)cc1)c1ccc(Cl)c(Cl)c1 (centres unmarked) [Compound 248, 4-cyclobutoxy-N-(1-(3,4-dichlorophenyl)-2-(dimethylamino)ethyl)benzenesulfonamide] | 16.4
4 | CC(C)(NS(=O)(=O)c1ccc(OC(F)(F)F)cc1)C1(c2ccc(Cl)c(Cl)c2)CC1 [Compound 245, N-(2-(1-(3,4-dichlorophenyl)cyclopropyl)propan-2-yl)-4-(trifluoromethoxy)benzenesulfonamide] | 45.2
5 | COC(=O)CC(NS(=O)(=O)c1ccc(OC(F)(F)F)cc1)c1cccc(Br)c1 (centres unmarked) [Compound 38, Methyl 3-(3-bromophenyl)-3-((4-(trifluoromethoxy)phenyl)sulfonamido)propanoate] | 66.5
6 | O=S(=O)(NCCN1c2ccccc2NS1(=O)=O)c1ccc(OC(F)(F)F)cc1 [Compound 100, N-(2-(2,2-dioxidobenzo[c] [1,2,5]thiadiazol-1(3H)-yl)ethyl)-4-(trifluoromethoxy)benzenesulfonamide] | 61
7 | COC(=O)C[C@@H](Cc1ccccc1)NS(=O)(=O)c1ccc(OC(F)(F)F)cc1 [Compound 6, Methyl (R)-4-phenyl-3-((4-(trifluoromethoxy)phenyl)sulfonamido)butanoate] | 61.1
8 | O=S(=O)(NC(Cc1cccc(Br)c1)CC(F)(F)F)c1ccc(OC(F)(F)F)cc1 (centres unmarked) [Compound 44, N-(1-(3-bromophenyl)-4,4,4-trifluorobutan-2-yl)-4-(trifluoromethoxy)benzenesulfonamide] | 59
9 | COCCC(NS(=O)(=O)c1ccc(OC(F)(F)F)cc1)c1ccc(Cl)c(Cl)c1 (centres unmarked) [Compound 35, N-(1-(3,4-dichlorophenyl)-3-methoxypropyl)-4-(trifluoromethoxy)benzenesulfonamide] | 50.9
10 | CC(C)CN(CCNS(=O)(=O)c1ccc(OC(F)(F)F)cc1)CC(C)C [Compound 63, N-(2-(diisobutylamino)ethyl)-4-(trifluoromethoxy)benzenesulfonamide] | 60
11 | CN(C)CC(NS(=O)(=O)c1ccc(-c2ccccn2)cc1)c1ccc(Cl)c(Cl)c1 (centres unmarked) [Compound 218, N-(1-(3,4-dichlorophenyl)-2-(dimethylamino)ethyl)-4-(pyridin-2-yl)benzenesulfonamide] | 43.7
12 | COC(=O)C(C)C(NS(=O)(=O)c1ccc(OC(F)(F)F)cc1)c1ccccc1 (centres unmarked) [Compound 23] | 43.1
13 | O=S(=O)(NC(CC1CC1)c1ccccc1)c1ccc(OC(F)(F)F)cc1 (centres unmarked) [Compound 19, N-(2-cyclopropyl-1-phenylethyl)-4-(trifluoromethoxy)benzenesulfonamide] | 51.9
14 | COc1ccc(OC)c(CCCNS(=O)(=O)c2ccc(OC(F)(F)F)cc2)c1 [Compound 27, N-(3-(2,5-dimethoxyphenyl)propyl)-4-(trifluoromethoxy)benzenesulfonamide] | 40.2
15 | CC(C)(C)OC(=O)N1CC(F)(F)CC1CNS(=O)(=O)c1ccc(OC(F)(F)F)cc1 (centres unmarked) [Compound 65, Tert-butyl 4,4-difluoro-2-(((4-(trifluoromethoxy)phenyl)sulfonamido)methyl)pyrrolidine-1-carboxylate] | 43
16 | CN(C)CC(NS(=O)(=O)c1cccc(F)c1)c1ccc(Cl)c(Cl)c1 (centres unmarked) [Compound 129, N-(1-(3,4-dichlorophenyl)-2-(dimethylamino)ethyl)-3-fluorobenzenesulfonamide] | 69.9
17 | O=S(=O)(NC(CC1CC1)c1ccc(F)cc1Br)c1ccc(OC(F)(F)F)cc1 (single isomer, unassigned) [Compound 142a, N-(1-(2-bromo-4-fluorophenyl)-2-cyclopropylethyl)-4-(trifluoromethoxy)benzenesulfonamide] | 80
18 | CC(NS(=O)(=O)c1ccc(OC(F)(F)F)cc1)c1cc(F)ccc1N1CCC(O)CC1 (centres unmarked) [Compound 21, N-(1-(5-fluoro-2-(4-hydroxypiperidin-1-yl)phenyl)ethyl)-4-(trifluoromethoxy)benzenesulfonamide] | 46.8
19 | COC(=O)C(NS(=O)(=O)c1ccc(OC(F)(F)F)cc1)c1ccccc1Br (centres unmarked) [Compound 92, Methyl 2-(2-bromophenyl)-2-((4-(trifluoromethoxy)phenyl)sulfonamido)acetate] | 42
20 | COc1cc(C2(CNS(=O)(=O)c3ccc(OC(F)(F)F)cc3)CCCC2)ccc1OC(F)F [Compound 33, N-((1-(4-(difluoromethoxy)-3-methoxyphenyl)cyclopentyl)methyl)-4-(trifluoromethoxy)benzenesulfonamide] | 73.4
21 | COC(=O)c1cc(S(=O)(=O)NC(CN(C)C)c2ccc(Cl)c(Cl)c2)ccc1OC(F)(F)F (centres unmarked) [Compound 226, methyl 5-(N-(1-(3,4-dichlorophenyl)-2-(dimethylamino)ethyl)sulfamoyl)-2-(trifluoromethoxy)benzoate] | 70.6

Other lines, results leading:

Row | GI50 [µM] | SMILES
22 | 24.5 | O=S(=O)(NC(CN1CCCC1)c1ccc(Cl)c(Cl)c1)c1ccc(OC(F)(F)F)cc1 (centres unmarked) [Compound 182, N-(1-(3,4-dichlorophenyl)-2-(pyrrolidin-1-yl)ethyl)-4-(trifluoromethoxy)benzenesulfonamide]
23 | 21.8 | CN(C)CC(NS(=O)(=O)c1ccc(OCC2CC2)cc1)c1ccc(Cl)c(Cl)c1 (centres unmarked) [Compound 207, 4-(cyclopropylmethoxy)-N-(1-(3,4-dichlorophenyl)-2-(dimethylamino)ethyl)benzenesulfonamide]
24 | 6.84 | O=S(=O)(NC(CN1CCNCC1)c1ccc(Cl)c(Cl)c1)c1ccc(OC(F)(F)F)cc1 (centres unmarked) [Compound 237, N-(1-(3,4-dichlorophenyl)-2-(piperazin-1-yl)ethyl)-4-(trifluoromethoxy)benzenesulfonamide]
25 | 20 | C=CCCC(NS(=O)(=O)c1ccc(OC(F)(F)F)cc1)c1ccc(C(F)(F)F)cc1 (centres unmarked) [Compound 71, 4-(trifluoromethoxy)-N-(1-(4-(trifluoromethyl)phenyl)pent-4-en-1-yl)benzenesulfonamide]
26 | 28 | CCn1nc(C(F)(F)F)cc1COCCNS(=O)(=O)c1ccc(OC(F)(F)F)cc1 [Compound 90, N-(2-((1-ethyl-3-(trifluoromethyl)-1H-pyrazol-5-yl)methoxy)ethyl)-4-(trifluoromethoxy)benzenesulfonamide]
27 | 24.9 | CN(C)CC(NS(=O)(=O)c1ccc2c(c1)OC(F)(F)O2)c1ccc(Cl)c(Cl)c1 (centres unmarked) [Compound 156, N-(1-(3,4-dichlorophenyl)-2-(dimethylamino)ethyl)-2,2-difluorobenzo[d][1,3]dioxole-5-sulfonamide]
28 | 39 | O=S(=O)(NCC1CCCCC1c1ccccc1)c1ccc(OC(F)(F)F)cc1 (centres unmarked) [Compound 49, N-((2-phenylcyclohexyl)methyl)-4-(trifluoromethoxy)benzenesulfonamide]
29 | 14.4 | CN(C)CC(NS(=O)(=O)c1cccc(-c2ccccc2)c1)c1ccc(Cl)c(Cl)c1 (centres unmarked) [Compound 144, N-(1-(3,4-dichlorophenyl)-2-(dimethylamino)ethyl)-[1,1′-biphenyl]-3-sulfonamide]
30 | 5.47 | CC(C)CC(CCO)NS(=O)(=O)c1ccc(OC(F)(F)F)cc1 (centres unmarked) [Compound 10, N-(1-hydroxy-5-methylhexan-3-yl)-4-(trifluoromethoxy)benzenesulfonamide]
31 | 34.7 | O=S(=O)(N[C@@H](CCO)c1ccccc1)c1ccc(OC(F)(F)F)cc1 [Compound 12, (S)—N-(3-hydroxy-1-phenylpropyl)-4-(trifluoromethoxy)benzenesulfonamide]
32 | 40.2 | O=S(=O)(N[C@@H](CO)c1ccc(Cl)c(Cl)c1)c1ccc(OC(F)(F)F)cc1 [Compound 121, (R)—N-(1-(3,4-dichlorophenyl)-2-hydroxyethyl)-4-(trifluoromethoxy)benzenesulfonamide]
33 | 15 | CN1CCN(CC(NS(=O)(=O)c2ccc(Oc3ccc(F)cc3)cc2)c2ccc(Cl)c(Cl)c2)CC1 (centres unmarked) [Compound 269, N-(1-(3,4-dichlorophenyl)-2-(4-methylpiperazin-1-yl)ethyl)-4-(4-fluorophenoxy)benzenesulfonamide]
34 | 13.6 | CN(C)CC(NS(=O)(=O)c1ccc(Nc2ccccc2)cc1)c1ccc(Cl)c(Cl)c1 (centres unmarked) [Compound 188, N-(1-(3,4-dichlorophenyl)-2-(dimethylamino)ethyl)-4-(phenylamino)benzenesulfonamide]
35 | 7.5 | CCCCCc1ccc(S(=O)(=O)NC(CN(C)C)c2ccc(Cl)c(Cl)c2)cc1 (centres unmarked) [Compound 215, N-(1-(3,4-dichlorophenyl)-2-(dimethylamino)ethyl)-4-pentylbenzenesulfonamide]
36 | 12.1 | CN1CCN(CC(NS(=O)(=O)c2ccc(Oc3ccccc3)cc2)c2ccc(Cl)cc2)CC1 (centres unmarked) [Compound 234, N-(1-(4-chlorophenyl)-2-(4-methylpiperazin-1-yl)ethyl)-4-phenoxybenzenesulfonamide]
37 | 9 | O=S(=O)(NC(c1cc(Cl)cc(Cl)c1)C1CCCCC1)c1ccc(OC(F)(F)F)cc1 (centres unmarked) [Compound 69, N-(cyclohexyl(3,5-dichlorophenyl)methyl)-4-(trifluoromethoxy)benzenesulfonamide]
38 | 2.27 | CN(C)CC(NS(=O)(=O)c1ccc(OC(F)(F)F)c([N+](=O)[O-])c1)c1cccc(C(F)(F)F)c1 (centres unmarked) [Compound 205, N-(2-(dimethylamino)-1-(3-(trifluoromethyl)phenyl)ethyl)-3-nitro-4-(trifluoromethoxy)benzenesulfonamide]
